We go through four molecules from patent US4588713A, “Selective biologically active 7-oxo-prostacyclin derivatives and pharmaceutical compositions containing same” (Chinoin Gyogyszer Vegyeszeti Termekek Gyara Rt., priority 1984, dated 1986).

What is called ED50 is the dose that gives a 50% effect, or the effect in half of the subjects. The low end stands for greater potency, the high end for weaker potency. Usually IC50 stands for the concentration that gives 50% inhibition.

Data set [1] has as its system anaesthetized cat with an open-chest. The data set can be described thus: Hypotensive (haemodynamic, blood pressure reducing) activity, i.v. bolus, anaesthetized open-chest cat. It counts as in vivo. As to conditions: for ED50: Felis catus, iv; for relative efficiency H^2 (hypotensive): relative to PGI2-Na = 1. How it is done:
(§1) The selective biological activity of these compounds may be studied by investigating the antiaggregation and hypotensive activity simultaneously. Anti-aggregation activity was measured in vitro according to Born Nature, 214, 927 (1962) on human plasma enriched with thrombocytes in an aggregation induced by […] ADP, whereas the haemodynamic activity was obtained from the blood pressure reducing activity of the compound administered in an i.v. bolus injection to an anaesthetized cat with an open-chest.

The subject of data set [2] is antiaggregation and hypotensive activity. The data set can be described thus: Selectivity: antiaggregation versus hypotensive activity. As to conditions: for H^1 /H^2: relative anti-aggregation efficiency / relative hypotensive efficiency. How it is done: as §1
Data set [3] relates to human plasma enriched with thrombocytes. In words: Anti-aggregation activity in vitro (Born), ADP-induced aggregation. In kind it is cell-based. As to conditions: for relative efficiency H^1 (anti-aggregation): relative to PGI2-Na = 1. How it is done:
as §1

The conditions of data set [4]: background; cited from earlier work.
[5] abbreviates: i.v. bolus, anaesthetized open-chest cat.
The mark [6] stands for this setting: in vitro, human plasma enriched with thrombocytes, 2 μm ADP.

≈ marks a conversion by molar mass, not a printed value. Entries after “also recorded” stand apart in the source; their conditions may differ. Counter-ions that a name gives are not always drawn.

On to `CCCCC[C@H](O)/C=C/[C@@H]1[C@H]2C(=O)/C(=C/CCCC(=O)O)O[C@H]2C[C@H]1O` [7-oxo-PGI2 --Na, sodium salt of 7-oxo-PGI2], for which, in data set [1] (setting [5]), it took a dose of 6.5 µg/kg to reach the 50% effect level (ED50). Besides, the “relative efficiency H^2 (hypotensive)” value in data set [1] was found to be 0.024. The “H^1 /H^2” value in data set [2] is reported as 2.75. For the same molecule, the IC50 in data set [3] (setting [6]) came to 15 ng/mL. In addition, the “relative efficiency H^1 (anti-aggregation)” value in data set [3] was 0.086.
`CCCCC[C@H](O)/C=C/[C@@H]1[C@H]2C/C(=C/CCCC(=O)O)O[C@H]2C[C@H]1O` [PGI2 --Na] displayed an ED50 in data set [1] (setting [5]) of 0.16 µg/kg. The “relative efficiency H^2 (hypotensive)” value in data set [1] is on record as 1. In addition, the “H^1 /H^2” value in data set [2] is recorded as 1. In data set [3] (setting [6]), the IC50 worked out at 1 ng/mL (≈ 2.84 nM).
Turning to `CCCCC[C@H](O)/C=C/[C@@H]1[C@H]2C/C(=C/CCCC(=O)O)O[C@H]2C[C@H]1O` [PGI2, Prostacyclin], the “chemical and biological stability (in words)” value in data set [4] is “chemical and biological instability”.
As for `O=C([O-])CCCC=C1OC2CC(O)C(C=CC(O)C3CCCC3)C2C1=O.[Na+]` (stereo not shown) [Sodium salt of 7-oxo-16,17,18,19,20-pentanor-15-cyclopentyl-PGI2], the “hypotensive activity ED50” value in data set [1] (setting [5]) is 21.2 µg/kg. Besides, in data set [1], the “relative efficiency H^2 (hypotensive)” value amounted to 0.0075. Further, the “selectivity compared with prostacycline and 7-oxo-PGI2 sodium salt (in words)” value in data set [2] (from H^1/H^2, listed as cyclopentyl analog) is recorded as “about hundred times more selective than prostacycline; also recorded: considerably more selective than the sodium salt of 7-oxo-PGI2”. Also, the “H^1 /H^2” value in data set [2] came out at 83.1. The “anti-aggregation IC50” value in data set [3] (setting [6]) is 1.6 ng/mL. For the same molecule, the “relative efficiency H^1 (anti-aggregation)” value in data set [3] amounted to 0.625.
